Earlier results on 2 compounds are cited in PubChem BioAssay AID1259409 (Chemical Carcinogenesis Research Information System (CCRIS), 2018).

Where “and” joins values, the source holds several entries; their conditions need not be identical. Equal values may be shown once.

This data set concerns rodent chemically induced tumor inhibition, incidence and multiplicity. As to the kind of experiment: CCRIS tumor inhibitor studies. To be noted: Promoter: NONE USED.

Turning to `COc1ccc(-c2coc3cc(O)cc(O)c3c2=O)cc1`, the “tumour outcome (control, treated, inhibition, significance)” value is 20/35 (57%), 2/16 (13%), 77%, p<0.01 (Carcinogen: BENZO[A]PYRENE, 50-32-8, Dose [Inhibitor]: 0, 0.125 MG IN 0.1 ML DMSO 3/WK FOR 6 WK AFTER WEANING (STUDY DURATION: 9 WK), Route [Inhibitor]: INTRAPERITONEAL, Species: MOUSE, Strain/Sex: SWISS WEBSTER/MALE, FEMALE, Target Tissue: Type of Lesion: LUNG: ADENOMA, Dose [Carcinogen]: 0.5 MG IN AQUEOUS GELATIN WITHIN 24 HRS AFTER BIRTH); 11/19 (58%), 2/16 (13%), 78%, p<0.01 (Carcinogen: BENZO[A]PYRENE, 50-32-8, Dose [Inhibitor]: 0, 0.125 MG IN 0.1 ML DMSO 3/WK FOR 6 WK AFTER WEANING (STUDY DURATION: 9 WK), Route [Inhibitor]: INTRAPERITONEAL, Species: MOUSE, Strain/Sex: SWISS/FEMALE, Target Tissue: Type of Lesion: LUNG: ADENOMA, Dose [Carcinogen]: 0.5 MG IN 1% AQUEOUS GELATIN TO 24 HR OLD MICE ONCE); 13/26 (50%), 4/24 (17%), 66%, p<0.02 (Carcinogen: BENZO[A]PYRENE, 50-32-8, Dose [Inhibitor]: 0, 500 MG/KG IN 0.1 ML DMSO 2 D PRIOR TO EACH CARCINOGEN DOSE 1/WK FOR 4 WK (STUDY DURATION: 30 WK), Route [Inhibitor]: GAVAGE, Species: MOUSE, Strain/Sex: SWISS/FEMALE, Target Tissue: Type of Lesion: FORESTOMACH: CARCINOMA, Dose [Carcinogen]: 3 MG IN 0.2 ML CORN OIL 1/WK FOR 4 WK); 25/26 (96%), 21/24 (88%), 8%, not calculated (Carcinogen: BENZO[A]PYRENE, 50-32-8, Dose [Inhibitor]: 0, 500 MG/KG IN 0.1 ML DMSO 2 D PRIOR TO EACH CARCINOGEN DOSE 1/WK FOR 4 WK (STUDY DURATION: 30 WK), Route [Inhibitor]: GAVAGE, Species: MOUSE, Strain/Sex: SWISS/FEMALE, Target Tissue: Type of Lesion: FORESTOMACH: PAPILLOMA, Dose [Carcinogen]: 3 MG IN 0.2 ML CORN OIL 1/WK FOR 4 WK); 24/26 (92%), 20/24 (83%), 10%, not calculated (Carcinogen: BENZO[A]PYRENE, 50-32-8, Dose [Inhibitor]: 0, 500 MG/KG IN 0.1 ML DMSO 2 D PRIOR TO EACH CARCINOGEN DOSE 1/WK FOR 4 WK (STUDY DURATION: 30 WK), Route [Inhibitor]: GAVAGE, Species: MOUSE, Strain/Sex: SWISS/FEMALE, Target Tissue: Type of Lesion: LUNG: ADENOMA, Dose [Carcinogen]: 3 MG IN 0.2 ML CORN OIL 1/WK FOR 4/WK); 16/20 (80%), 11/19 (58%), 28%, not calculated (Carcinogen: N-METHYL-N-NITROSOUREA, 684-93-5, Dose [Inhibitor]: 0, 10 MG/KG IN DIET FOR DURATION OF STUDY BEGINNING POST CARCINOGEN DOSE (STUDY DURATION: 18 WK), Route [Inhibitor]: ORAL, Species: RAT, Strain/Sex: SPRAGUE-DAWLEY/FEMALE, Target Tissue: Type of Lesion: MAMMARY GLAND: TUMOR, Dose [Carcinogen]: 40 MG/KG BW ONCE). In addition, the “tumour outcome (control, treated, inhibition, significance)” value (Carcinogen: N-METHYL-N-NITROSOUREA, 684-93-5, Dose [Inhibitor]: 0, 50 MG/KG IN DIET FOR DURATION OF STUDY BEGINNING POST CARCINOGEN DOSE (STUDY DURATION: 18 WK), Route [Inhibitor]: ORAL, Species: RAT, Strain/Sex: SPRAGUE-DAWLEY/FEMALE, Target Tissue: Type of Lesion: MAMMARY GLAND: TUMOR, Dose [Carcinogen]: 40 MG/KG BW ONCE) was 16/20 (80%), 6/19 (32%), 60%, p<0.01.
Turning to `COc1ccc(O)c(C(C)(C)C)c1`, the “tumour outcome (control, treated, inhibition, significance)” value was 100%, 100%, 0%, not significant (Carcinogen: BENZO[A]PYENE, 50-32-8, Dose [Inhibitor]: 0.28 MMOL/G DIET DAILY FOR 6 WK STARTING 14 D PRIOR TO THE FIRST UNTIL 1 D AFTER LAST CARCINOGEN DOSE FOLLOWED BY AN OBS, Route [Inhibitor]: ORAL, Species: MOUSE, Strain/Sex: STRAIN-A/FEMALE, Target Tissue: Type of Lesion: LUNG: ADENOMA, Dose [Carcinogen]: 3 MG IN 0.2 ML COTTONSEED OIL GIVEN 3X AT 2 WK INTERVALS); 90%, 79%, 12%, not significant and 94%, 79%, 16%, not significant (Carcinogen: BENZO[A]PYRENE, 50-32-8, Dose [Inhibitor]: 0.03 MMOL/G OF DIET DAILY STARTING 7 D BEFORE AND CONTINUING THROUGH 3 D AFTER CARCINOGEN TREATMENT FOLLOWED BY OBSERVAT, Route [Inhibitor]: ORAL, Species: MOUSE, Strain/Sex: ICR/FEMALE, Target Tissue: Type of Lesion: FORESTOMACH: NEOPLASM, Dose [Carcinogen]: 1 MG IN 0.2 ML CORN OIL 2/WK FOR 4 WK).
